# Assay results from PubChem BioAssay AID1996.
# Details: buffer; pH 7.4; 200.0 µM
row,Structure (SMILES),solubility kinetic
1,CCOC(=O)Cc1cnc(N)s1,27.6 µg/mL
2,CCCc1cc(=O)[nH]c(SCC(=O)Nc2sc3c(c2C(N)=O)CCCC3)n1,9 µg/mL
3,CC(C)(C)N(Cc1ccccc1)C(=O)CN1C(=O)c2ccccc2C1=O,0.8 µg/mL
4,COc1cc(C)ccc1S(=O)(=O)NC1CC(C)(C)NC(C)(C)C1,35 µg/mL
5,COc1ccc(S(=O)(=O)n2c(C)nc3ccccc32)cc1C,36.2 µg/mL
6,Cc1cc(/C=C/C(=O)O)c(C)n1-c1ccc(Cl)cc1,> 41.4 µg/mL
7,CC(NC(=O)CSc1nc2ccccc2n1C)c1ccccc1 (stereo not drawn),> 48.8 µg/mL
8,O=[N+]([O-])c1ccc(N2CCN(c3ccc(F)cc3)CC2)cn1,3.5 µg/mL
9,O=C(c1ccc(F)cc1)N1CCN(c2ccc([N+](=O)[O-])cc2-n2cccc2)CC1,3.3 µg/mL
10,ClCc1cc2ccccc2nc1Cl,6.5 µg/mL
11,COC(=O)c1cn(C(=O)c2cc(OC)cc(OC)c2)c2ccccc12,3.4 µg/mL
12,OCCc1c[nH]c2ccc(OCc3ccccc3)cc12,24.8 µg/mL
13,CCCCc1nc2cc(C(=O)N3CCC(O)CC3)ccc2o1,> 45.4 µg/mL
14,CC1(CCC(=O)N2CCCC(Nc3ccc(F)cc3)C2)CC1 (stereo not drawn),> 45.7 µg/mL
15,Cc1ccc(C2=NOC(=O)/C2=C\c2ccccc2)cc1,33.7 µg/mL
16,O=C(CNC(=O)c1ccccc1)OCC(=O)c1cccs1,> 45.5 µg/mL
17,CCOc1ccccc1C(=O)NCC(=O)OCC(=O)N1CCCC1,> 50.2 µg/mL
18,COC(OC)c1ccc(C#N)c(SCc2ccc(C)cc2)n1,0.4 µg/mL
19,O=C(Nc1ccccc1N1CCOCC1)C1CCCO1 (stereo not drawn),> 41.5 µg/mL
20,CC(C)c1ccc(Nc2nc(Cl)nc(NCc3ccco3)n2)cc1,0.6 µg/mL
21,CC1(C)C(=O)OC(/C=C/c2cccc([N+](=O)[O-])c2)C(C)(C)C1=O (stereo not drawn),2.7 µg/mL
22,O=C(Nc1cccc([N+](=O)[O-])c1)NC1CCS(=O)(=O)C1 (stereo not drawn),> 44.9 µg/mL
23,Cc1ccc(C)c(NC(=S)N2CCCCC2CO)c1 (stereo not drawn),> 41.8 µg/mL
24,O=C(Nc1ccccc1O)C(c1ccccc1)c1ccccc1,9 µg/mL

row,Structure (SMILES),solubility kinetic
1,CCOC(=O)c1cnc2ccccc2c1NCc1ccco1,11.3 µg/mL
2,O=C(NC(=O)c1c(F)cccc1F)Nc1ccccc1SC(F)F,< 0.4 µg/mL
3,CCOc1ccccc1C1NC(=O)c2ccccc2O1 (stereo not drawn),35.2 µg/mL
4,O=C1CC(NC(=O)C(F)(F)F)c2cc3c(cc21)OCO3 (stereo not drawn),42.3 µg/mL
5,COc1cccc(C=O)c1OC(=O)N1CCOCC1,> 39.8 µg/mL
6,CC(C)CCN(C(=O)c1ccccn1)c1c(N)n(Cc2ccccc2)c(=O)[nH]c1=O,56.9 µg/mL
7,CCc1cc(=O)[nH]c(SCC(=O)Nc2cc(C)on2)n1,> 44.1 µg/mL
8,O=C1c2ccccc2C(=O)N1CCOc1ccc(F)cc1,4 µg/mL
9,CC(C)OP(=O)(OC(C)C)C(Nc1ccccc1)c1cccnc1 (stereo not drawn),46.5 µg/mL
10,Cc1csc(NC(=O)c2ccc[nH]c2=O)n1,> 35.3 µg/mL
11,CC(NC(=O)OCc1ccccc1)c1ccccc1 (stereo not drawn),> 38.3 µg/mL
12,Cc1cc(C)c(S(=O)(=O)NC2CC2)c(C)c1,> 35.9 µg/mL
13,Cc1cccc(C)c1NC(=S)N(CCN(C)C)C(C)c1ccccn1 (stereo not drawn),> 53.5 µg/mL
14,O=C(c1c(F)cccc1F)N1CCN(CCOc2ccccc2)CC1,> 52 µg/mL
15,COC(=O)c1ccc(Oc2nc(SC)nc(N(C)C)n2)cc1,2.1 µg/mL
16,COC(=O)C(N)Cc1ccc(OC)c([N+](=O)[O-])c1.Cl (stereo not drawn),> 43.6 µg/mL
17,Cn1c(O)c(/C=C2\C=c3ccccc3=NC2=O)c(=O)n(C)c1=O,> 46.7 µg/mL
18,Cc1ccc(C(=O)NC2CCN(C(=O)Nc3ccc(F)cc3)CC2)cc1,0.6 µg/mL
19,CCOc1ccccc1C(=O)Nc1ccc2c(c1)C(=O)NC2=O,< 0.3 µg/mL
20,Cc1cc(F)c(F)c(C(=O)N2CCCCC2C)c1Cl (stereo not drawn),34.6 µg/mL
21,COCCNC(=O)c1cc(Sc2nnc(C)s2)nc2ccccc12,> 54.1 µg/mL
22,N#CC1(NC(=O)CSc2nnc3n2CCCCC3)CCCCC1,> 50 µg/mL
23,Cc1ccc(C(=O)NCCN2CCNC2=O)cc1,> 37.1 µg/mL
24,Cc1ccc(NC(=O)Nc2cccc(C)n2)cc1,0.8 µg/mL

row,Structure (SMILES),solubility kinetic
1,Cc1onc(-c2ccccc2)c1NC(=O)Nc1ccc(OC(F)F)cc1,7 µg/mL
2,COc1ccccc1/C=C/C(=O)NCC(=O)N/N=C/c1ccc(C)o1,> 51.2 µg/mL
3,Cc1cc2nsnc2c(S(=O)(=O)N2CCN(C)CC2)c1C,47.9 µg/mL
4,Cc1cccc(NS(=O)(=O)c2ccc3c(c2)oc(=O)n3C)c1C,1.5 µg/mL
5,Cc1cnc(C(=O)OCC(=O)c2ccc(F)cc2)cn1,> 41.1 µg/mL
6,CCOC(=O)N1CCC(NC(=O)c2ccccc2C(=O)O)CC1,> 48.1 µg/mL
7,COc1ccc2nc(SCC(=O)Nc3ccccc3OC)[nH]c2c1,39.6 µg/mL
8,N#Cc1c(C(F)(F)F)cc(-c2cccs2)nc1N1CCCCC1,< 0.2 µg/mL
9,CCn1c(=O)c2ccccc2n(Cc2ccc([N+](=O)[O-])cc2)c1=O,5.6 µg/mL
10,Oc1ccc2ccccc2c1C=NCc1ccccc1,10.8 µg/mL
11,CC(C)CN(C(=O)c1ccco1)c1nc2ccccc2s1,2.2 µg/mL
12,CCN(CC)C(=O)CSc1nnc(SC(C)C(=O)NC2CC2)s1 (stereo not drawn),> 56.2 µg/mL
13,COc1ccc(C(=O)C2CCN(C(=O)c3ccc(F)cc3)CC2)cc1,50.6 µg/mL
14,CCc1cc(=O)[nH]c(SCCc2ccccc2)n1,> 39.1 µg/mL
15,CCOC(=O)Cc1csc(NC(=O)c2ccc([N+](=O)[O-])cc2[N+](=O)[O-])n1,> 57 µg/mL
16,O=S(=O)(c1ccccc1)N1CCN(Cc2c(O)ccc3ccccc23)CC1,6.6 µg/mL
17,CCN(CC)C(=O)c1cc2c(=O)n3cccc(C)c3nc2s1,43.4 µg/mL
18,Cc1ccc(NC(=O)COc2ccc(Br)cc2CO)cc1S(=O)(=O)N1CCOCC1,21.1 µg/mL
19,CC(OC(=O)c1ccc([N+](=O)[O-])cc1)C(=O)NCC1CCCCC1 (stereo not drawn),5.6 µg/mL
20,O=C(CNCc1ccc(F)cc1)Nc1ccccc1[N+](=O)[O-],32.7 µg/mL
21,O=C(NC(=S)NC1CCCC1)c1ccccc1,16.9 µg/mL
22,CC(C)(C)c1cc(C(=S)N2CCCC2)cc(C(C)(C)C)c1O,4.7 µg/mL
23,O=C(CCc1ccc(S(=O)(=O)N2CCOCC2)cc1)OCC(=O)c1ccc(Br)cc1,6.7 µg/mL
24,CCOC(=O)c1ccccc1NC(=O)c1cc2ccccc2o1,< 0.7 µg/mL

row,Structure (SMILES),solubility kinetic
1,CC(C)c1ccc(N2C=Nc3ccc(C(C)C)cc3C2)cc1,2.8 µg/mL
2,CC1(C)CC(NCc2ccccc2)CCO1.Cl (stereo not drawn),34.2 µg/mL
3,COC(=O)c1ccc(C(=S)N2CCCCC2)cc1,> 39.5 µg/mL
4,COc1ccc(S(=O)(=O)NCCc2ccncc2)cc1,40.7 µg/mL
5,Cc1ccc(NC(=O)N2CCC(C(=O)c3ccc(F)cc3)CC2)cc1,0.6 µg/mL
6,COc1ccc(-c2ccc(CCC(=O)O)n2NC(=O)c2ccc(O)cc2)cc1,> 57.1 µg/mL
7,O=C(Nc1nc2ccccc2[nH]1)NC1CCCCC1,1.6 µg/mL
8,CCN1C(=O)N(c2ccc(C(C)=O)cc2)S(=O)(=O)c2ccccc21,47.6 µg/mL
9,O=C(NCc1ccco1)Nc1ccc([N+](=O)[O-])cc1,16.5 µg/mL
10,Fc1ccc(NC(=S)NCc2cccnc2)cc1,> 39.2 µg/mL
11,O=C1CCC(=O)N1c1ccc(-c2nc3sc4c(c3c(=O)o2)CCC4)cc1,1 µg/mL
12,COc1cc(C2=NC(CO)(CO)CO2)cc(OC)c1OC,> 44.6 µg/mL
13,Cc1nc(C)c(Oc2cccc(C(F)(F)F)c2)c(=O)[nH]1,38.2 µg/mL
14,Cc1[nH]c2ccccc2c1C(c1ccccn1)N1CCCC1 (stereo not drawn),39.9 µg/mL
15,COc1cc(SC)ccc1C(=O)N(Cc1ccccc1)c1ccccc1,6.3 µg/mL
16,O=C(Nc1ccc2c(c1)OCCO2)C1CC(O)CN1C(=O)Nc1ccccc1 (stereo not drawn),> 57.5 µg/mL
17,Cc1ccc2[nH]c3c(c2c1)CCN(C)C3,> 30 µg/mL
18,Cc1ccccc1OCC(=O)NCCCNC(=O)c1ccccn1,> 49.1 µg/mL
19,CC(C)CN(C(=O)CN(C)CC(=O)Nc1ccccc1C#N)c1c(N)n(CC(C)C)c(=O)[nH]c1=O,> 72.5 µg/mL
20,Cc1ccc(C)c(S(=O)(=O)/N=C(/Nc2ccccc2)c2ccccc2)c1,17.2 µg/mL
21,Cc1ccc(NC(=O)COC(=O)C2(CC(=O)NC(C)C)CCCC2)cc1C,3.6 µg/mL
22,CCCCCCC1CCC(C(=O)N2CCOCC2)CC1 (stereo not drawn),10 µg/mL
23,O=C(Cc1ccc(Cl)cc1Cl)NCc1cccnc1,> 44.3 µg/mL
24,COc1ccc(C(=O)NC2CCCc3ccccc32)cc1[N+](=O)[O-] (stereo not drawn),2.4 µg/mL

row,Structure (SMILES),solubility kinetic
1,Cc1cccc(-c2noc(CCC(=O)Nc3ccc(C(N)=O)cc3)n2)c1,0.5 µg/mL
2,Oc1c(Cl)cc(Cl)c2c1NCCC2,7 µg/mL
3,O=c1[nH]n2cc(-n3cc([N+](=O)[O-])cn3)cnc2c1Br,> 48.8 µg/mL
4,CCC1CCC(N2CCN(c3cccc(OC)c3)CC2)CC1 (stereo not drawn),32.6 µg/mL
5,COc1ccc(C(C)NC(=O)c2ccncc2)cc1OC (stereo not drawn),> 42.9 µg/mL
6,CCN(Cc1ccncc1)Cc1ccc(Br)cc1.O=C(O)C(=O)O,30.6 µg/mL
7,Cc1cccc(NC(=S)NC(=O)c2ccc(-c3ccccc3)cc2)n1,0.5 µg/mL
8,CC1=C([N+](=O)[O-])C(c2ccc3c(c2)OCO3)N(C)C(=O)N1C (stereo not drawn),36.4 µg/mL
9,O=C(COc1ccc(S(=O)(=O)N2CCCCC2)cc1)N1CCCC1,> 52.9 µg/mL
10,COc1ccc(CNC2CCCc3ccccc32)c(OC)c1 (stereo not drawn),31.4 µg/mL
11,COc1cc2c(cc1OC)CN(c1ccc(C(N)=O)cc1[N+](=O)[O-])CC2,6.4 µg/mL
12,O=[N+]([O-])c1ccc(OCCO)nc1,26.7 µg/mL
13,CN(C)C(CNC(=O)c1coc2ccccc2c1=O)c1ccccc1 (stereo not drawn),> 50.5 µg/mL
14,COc1ccc(C2NC(=O)CCC2[N+](=O)[O-])c(OC)c1 (stereo not drawn),> 42 µg/mL
15,COc1ccccc1CN(C)C(=O)CSCC(=O)Nc1ccccc1F,> 56.5 µg/mL
16,Fc1ccc(NC(=S)NCCN2CCOCC2)c(F)c1F,> 47.9 µg/mL
17,C=CCOc1cccc(CNc2cccc(C(=O)O)c2)c1,> 42.5 µg/mL
18,CCC(C(=O)Nc1c(C)cc(C)cc1C)N1CCCCCC1 (stereo not drawn),41 µg/mL
19,CCc1onc(C)c1C(=O)O,> 23.3 µg/mL
20,Cc1cccc(Oc2ccc(NC(=O)c3ccccc3C(=O)O)cc2)c1,> 52.1 µg/mL
21,O=C(NC1CCCCC1)c1ccc(-c2cccc([N+](=O)[O-])c2)o1,2.8 µg/mL
22,COC(=O)CSc1ncnc2c1sc1nc3c(cc12)COC(C)(C)C3,1.6 µg/mL
